Measurements taken from US20080306131A1, “Progesterone receptor modulator and uses thereof” (Wyeth, priority 2007, published 2008).
Where two headings read alike, the source gives them in different places.

Target: T1, progesterone receptors (PR) (Homo sapiens, UniProt P06401)
T1 sequence (P06401 1-933): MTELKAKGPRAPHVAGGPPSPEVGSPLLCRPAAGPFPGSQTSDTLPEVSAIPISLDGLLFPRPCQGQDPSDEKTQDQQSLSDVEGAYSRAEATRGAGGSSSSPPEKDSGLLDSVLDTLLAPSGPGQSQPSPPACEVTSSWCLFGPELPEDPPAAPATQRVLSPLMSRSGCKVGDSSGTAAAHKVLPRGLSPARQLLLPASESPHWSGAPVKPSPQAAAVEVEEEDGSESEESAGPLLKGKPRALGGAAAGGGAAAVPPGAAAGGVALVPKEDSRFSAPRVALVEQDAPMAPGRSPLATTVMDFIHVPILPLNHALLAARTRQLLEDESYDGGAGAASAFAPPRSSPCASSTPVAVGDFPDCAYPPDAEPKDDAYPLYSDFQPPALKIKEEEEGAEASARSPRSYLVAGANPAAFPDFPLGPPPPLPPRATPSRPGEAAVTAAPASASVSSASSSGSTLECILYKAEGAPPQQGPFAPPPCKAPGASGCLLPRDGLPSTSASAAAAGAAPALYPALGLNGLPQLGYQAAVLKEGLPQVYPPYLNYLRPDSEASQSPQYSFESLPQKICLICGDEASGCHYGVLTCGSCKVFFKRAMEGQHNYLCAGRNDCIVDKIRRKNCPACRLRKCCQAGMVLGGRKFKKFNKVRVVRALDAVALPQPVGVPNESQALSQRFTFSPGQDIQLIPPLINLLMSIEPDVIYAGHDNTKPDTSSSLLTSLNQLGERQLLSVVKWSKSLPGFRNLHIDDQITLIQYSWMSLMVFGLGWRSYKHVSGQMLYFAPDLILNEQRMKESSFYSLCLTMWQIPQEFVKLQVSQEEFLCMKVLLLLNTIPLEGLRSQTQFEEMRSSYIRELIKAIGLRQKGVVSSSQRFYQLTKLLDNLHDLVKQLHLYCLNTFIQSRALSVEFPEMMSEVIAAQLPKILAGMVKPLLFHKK
Experiment: PRE luciferase reporter assay and Quantigene branched DNA assay (TF, PPL) for progestin activity in T47D cells
Format: cell-based
Settings: read-out: efficacies (percentage of the maximum P4 response)
Protocol: Progestin activity was measured using a common luciferase reporter system in cells expressing endogenous progesterone receptors (PR). T47D breast cancer cells were plated at 50,000 cells/well in 96 well plates in DMEM/F-12 supplemented with penicillin/streptomycin, Glutamax and 5% FBS (Gibco). Cells were infected with a 1:1000 dilution of an adenovirus vector expressing luciferase under the control of three copies of a consensus progesterone receptor regulatory element (PRE) located in the promoter region. Following a two-hour post-infection recovery, cells were treated for 20 hours with progesterone (P4) or test compounds. Luciferase reporter activity was quantified using the Luciferase Assay System (Promega) and a Victor2 luminometer (Perkin Elmer).
T47D cells were plated as in the PRE assay and treated with compound for 15 hours. Expression of tissue factor (TF), a PR-β isoform regulated gene, or periplakin (PPL), a PR-A regulated gene, was measured by the Quantigene branched DNA assay (Genospectra) using the Victor2 luminometer following the manufacturer's recommended protocol.
EC50 values were determined using the dose response nonlinear fit model from the SAS statistics package (SAS Institute Inc). Efficacies were calculated as a percentage of the maximum P4 response.

| Structure (SMILES) | Emax (T47D breast cancer cells, percentage of maximum progesterone (P4) response, the text does not say which assay (PRE luciferase, TF, PPL) each value comes from) | Emax (T47D) |
| --- | --- | --- |
| CO[C@H]1[C@H](O)[C@@H](O)[C@@H](Oc2ccc3c4c([nH]c3c2)[C@]2(C)[C@H](CC[C@@H]3C(C)(C)C(=O)C=C[C@]32C)C4)O[C@@H]1CO [(4aS,6aR,12bR,12cR)-4,4,12b,12c-tetramethyl-3-oxo-3,4,4a,5,6,6a,7,12,12b,12c-decahydrobenzo[6,7]indeno[1,2-b]indol-10-yl 4-O-methyl-α-D-glucopyranoside] | < 1% | – |
| CC1(C)C(=O)C=CC2(C)C3(C)c4[nH]c5ccccc5c4CC3CCC12O (centres unmarked) [4a-hydroxy-4,4,12b,12c-tetramethyl-4a,5,6,6a,7,12,12b,12c-octahydrobenzo[6,7]indeno[1,2-b]indol-3(4H)-one] | – | < 1% |
